The values that follow come from US10564093B2, “Single injection competition assays” (Molecular Devices, LLC, priority 2015, dated 2020).

In the test the test system is Carbonic anhydrase II enzyme. The test is described as follows: SPR single injection competitive binding analysis of CBS in the presence of Furosemide. Here is the method:
The binding interaction analysis was carried out using a SPR cell having a sensing region wherein the bound ligand is Carbonic anhydrase II enzyme immobilized on the surface of the biosensor via amine coupling to ˜6500 RU. […] According to the method described above, the dispersion gradient was prepared by initially aspirating, pulling, the Furosemide into the sample holding line followed by pulling the buffer into the sample holding line. […] The dispersion gradient of CBS was prepared using 200 μl of a 2 μM of CBS and 100 μl of buffer. The dispersion gradient of CBS in buffer was prepared by initially aspirating the CBS into the sample holding line followed by pulling the buffer into the sample holding line. The resulting dispersion gradient was immediately injected at a flow rate of 50 μl/min through the SPR sensing region containing the bound ligand.
FIGS. 16-18 will be referenced with regard to the method of determining binding competitive analysis. FIG. 16 reflects the relative concentrations of analyte when performing a binding competition analysis.
In contrast, the relative concentration of CBS will increase as a dispersion gradient during the competitive analysis.
The binding response curves of FIG. 17 were prepared by injecting two samples. […]

Turning to `NS(=O)(=O)c1ccc(C(=O)O)cc1` [CBS, 4-carboxy-benzenesulfonamide], the “binding of CBS to the ligand in the presence of Furosemide (subtracted binding interaction curves, FIG. 18)” value (immobilized Carbonic anhydrase II, constant Furosemide, CBS dispersion gradient, Furosemide control curve subtracted) is “no binding”. For the same compound, under “no control subtraction, curve remains substantially steady state”, the “qualitative analysis of binding interaction curve of CBS/Furosemide dispersion gradient (FIG. 17, lines 1 and 3)” value was “does not compete and does not contribute to the binding interaction”.
